# Patent US12091670B2, “Bacteria-based protein delivery” (Universitaet Basel, priority 2014, dated 2024)
# Entries after “also recorded” stand apart in the source; their conditions may differ.
# B1: SteAi_2o fused murine tBID: murine tBID fused to the 20 N-terminal amino acids of SteA, delivered by S. enterica (protein)
# chain: MPYTSVSTYARALSGNKLPHGTGSQASRSFNQGRIEPDSESQEEIIHNIARHLAQIGDEMDHNIQPTLVRQLAAQFMNGSLSEEDKRNCLAKALDEVKTAFPRDMENDKAMLIMTMLLAKKVASHAPSLLRDVFHTTVNFINQNLFSYVRNLVRNEMD
# modifications: SteA1-20 - S. enterica codon optimized murine t-BID
# notes: murine tBID fused to the 20 N-terminal amino acids of SteA, delivered by S. enterica
# Legend:
# [1] = system: D2A1 cells; type: cell-based
# [2] = system: HeLa cells; type: cell-based, human
# [3] = system: 4T1 cells; type: cell-based
# [4] = system: B16F10 cells; type: cell-based
# [5] = system: cAMP; type: cell-based, human
# [6] = system: HeLa cells; assay: Apoptosis induction in HeLa cells by S. enterica aroA delivered murine tBid fusions (cleaved Caspase 3 p17 western blot); type: cell-based, human; settings: 4 h, MOI of 100
# [7] = system: HeLa cells; assay: Removal of YopE1-138 appendage by T3SS-delivered TEV protease, Western blot of digitonin lysed HeLa cells; type: cell-based, human; settings: coinfection, 2 h
# Excerpt: HeLa cells in 6-well plates were infected at an MOI of 100 as described above. In case of coinfection with the TEV protease translocating Y. enterocolitica strain, the OD600 of the strains was set and the two bacterial suspensions were mixed in a tube at a ratio of 1:1 (if not otherwise indicated) before addition to the cells. At the end of the infection, the cells were washed twice with ice-cold PBS and collected by scraping in a small volume of ice-cold PBS. After centrifugation (16 000 rcf, 5 min, 4° C.) the pellet was dissolved in 0.002% digitonin supplemented with a protease inhibitor cocktail (Roche complete, Roche). The dissolved pellets were incubated for 5 minutes on ice and then centrifuged (16 000 rcf, 25 min, 4° C.). Supernatants were collected and analyzed for total protein content by […] (Pierce) before SDS PAGE and Western blotting using an anti-Myc (Santa Cruz, 9E1 1) or anti-Ink4C (Cell Signaling) antibody.
# [8] = system: HeLa cells; type: cell-based, human; remark: listed apart in the source
# [9] = system: p38; type: cell-based, human
# [10] = system: Akt; type: cell-based, human
# [11] = system: actin network in HeLa cells; type: cell-based, human
# [12] = system: zebrafish embryos; settings: in vivo
# [13] = S. enterica aroA grown under SPI-1 T3SS inducing conditions
# [14] = S. enterica aroA grown under SPI-2 T3SS inducing conditions
molecule,measurement,setting,value
"BH3 domain of murine BID: YopE1-138 fusion with BH3 domain of murine tBID, codon optimized for Y. enterocolitica",cell death / apoptosis induction,[1],induce massive cell death; also recorded: induces massive apoptosis
same,cell death / apoptosis induction,[2],induce massive cell death; also recorded: induces massive apoptosis
same,cell death / apoptosis induction,[3],induce massive cell death; also recorded: induces massive apoptosis
same,cell death / apoptosis induction,[4],induce massive cell death; also recorded: induces massive apoptosis
BepA: YopE1-138 fusion with full length type IV effector BepA from B. henselae,cAMP production,[5],triggered cAMP production in expected amounts
BepAE30 5-end: YopE1-138 fusion with BepA E305-end containing the C-terminal Bid domain,cAMP production,[5],triggered cAMP production in expected amounts
BepG: YopE1-138 fusion with the Bid domain of the B. henselae effector BepG,cAMP production,[5],failed to induce cAMP
"Murine tBID fused to full length SteA: murine tBID fused to full length SteA, delivered by S. enterica",apoptosis induction (CASP3 p17 production),[6]; [13],lead to apoptosis induction in HeLa cells
same,apoptosis induction (CASP3 p17 production),[6]; [14],lead to apoptosis induction in HeLa cells
"TEV protease: TEV protease (S219V variant) fused to YopE1-138, delivered via T3SS",function of TEV protease delivered via T3SS,[7],functional
YopEi_i38-BID: YopE1-138 fusion with human BH3 interacting-domain death agonist (BID),apoptosis / cell death induction,[8],failed to induce apoptosis
YopEi_i38-OspF: YopE1-138 fusion with S. flexneri type III effector OspF,TNFa-induced p38 phosphorylation,[9],TNFa-induced phosphorylation was abolished
YopEi_i38-SopB: YopE1-138 fusion with Salmonella type III effector SopB,phosphorylation of Akt at T308 and S473,[10],induced a strong phosphorylation of Akt at T308 and 5473
YopEi_i38-SopE-Myc: YopE1-138 fusion with SopE and MycHis tag,changes in the actin network / F-actin rearrangements,[11],triggered massive F-actin rearrangements
YopEi_i38-SopE: YopE1-138 fusion with SopE from Salmonella enterica,phosphorylation of Akt at T308 and S473,[10],had no effect on Akt
same,changes in the actin network / F-actin rearrangements,[11],induced dramatic changes in the actin network
same,time of first changes in the actin cytoskeleton,[11],2 min p.i.
"YopEi_i38-SptP: YopE1-138 fusion with SptP, GTPase activating protein for Cdc42",effect of co-infection on YopE1-138-SopE-Myc triggered F-actin rearrangements,[11],abolished this effect in a dose dependent manner
YopEi_i38-z-BIM: YopE1-138 fusion with zebrafish apoptosis inducer BIM,automated image analysis of Caspase 3 p17 staining near bacteria,[12],induce apoptosis in nearby cells by far more than control bacteria do
same,cleaved CASP3 (apoptosis) in regions surrounding the bacteria,[12],strong increase in presence of cleaved CASP3; also recorded: induces apoptosis in zebrafish embryos
same,apoptosis / cell death induction,[8],showed clear signs of cell death
"murine BAX: YopE1-138 fusion with BH3 domain of murine BAX, codon optimized for Y. enterocolitica",cell death / apoptosis induction,[1],induce massive cell death; also recorded: induces massive apoptosis
same,cell death / apoptosis induction,[2],induce massive cell death; also recorded: induces massive apoptosis
same,cell death / apoptosis induction,[3],induce massive cell death; also recorded: induces massive apoptosis
same,cell death / apoptosis induction,[4],induce massive cell death; also recorded: induces massive apoptosis
murine tBID: YopE1-138 fusion with murine tBID codon optimized for Y. enterocolitica,cell death / apoptosis induction,[1],triggered cell death; also recorded: induces massive apoptosis
same,cell death / apoptosis induction,[2],triggered cell death; also recorded: induces massive apoptosis
same,cell death / apoptosis induction,[3],triggered cell death; also recorded: induces massive apoptosis
same,cell death / apoptosis induction,[4],triggered cell death; also recorded: induces massive apoptosis
B1,apoptosis induction (CASP3 p17 production),[6]; [13],failed to induce apoptosis
same,apoptosis induction (CASP3 p17 production),[6]; [14],failed to induce apoptosis
